Source: paper PMC11240139, “Exploring the antitumor potential of novel quinoline derivatives via tubulin polymerization inhibition in breast cancer; design, synthesis and molecular docking” (RSC Advances, 2024)

Tests used:
Assay type in all cases: cell-based
[1] = tested on: MCF7 (breast cancer); assay: NCI-60 SRB cytotoxicity screen; settings: Homo sapiens; MCF7, single dose 10 μM; read-out: growth inhibition (GI%)
[2] = tested on: SK-MEL-28 (melanoma); assay: NCI-60 SRB cytotoxicity screen; settings: Homo sapiens; SK-MEL-28, single dose 10 μM; read-out: growth inhibition (GI%)
[3] = tested on: SF-268 (CNS cancer); assay: NCI-60 SRB cytotoxicity screen; settings: Homo sapiens; SF-268, single dose 10 μM; read-out: growth inhibition (GI%)
[4] = tested on: NCI/ADR-RES (ovarian cancer); assay: NCI-60 SRB cytotoxicity screen; settings: Homo sapiens, single dose 10 μM, read-out: growth inhibition (GI%)
[5] = tested on: SW-620 (colon cancer); assay: NCI-60 SRB cytotoxicity screen; settings: Homo sapiens; SW-620, single dose 10 μM; read-out: growth inhibition (GI%)
[6] = tested on: SF-539 (CNS cancer); assay: NCI-60 SRB cytotoxicity screen; settings: Homo sapiens; SF-539, single dose 10 μM; read-out: growth inhibition (GI%)
[7] = tested on: SK-MEL-2 (melanoma); assay: NCI-60 SRB cytotoxicity screen; settings: Homo sapiens; SK-MEL-2, single dose 10 μM; read-out: growth inhibition (GI%)
[8] = tested on: PC-3 (prostate cancer); assay: NCI-60 SRB cytotoxicity screen; settings: PC-3, single dose 10 μM; read-out: growth inhibition (GI%)
[9] = tested on: K-562 (leukemia); assay: NCI-60 SRB cytotoxicity screen; settings: Homo sapiens; K-652 [sic], single dose 10 μM; read-out: growth inhibition (GI%)
[10] = tested on: OVCAR-3 (ovarian cancer); assay: NCI-60 SRB cytotoxicity screen; settings: Homo sapiens; OVCAR-3, single dose 10 μM; read-out: growth inhibition (GI%)
[11] = tested on: EKVX (non-small cell lung cancer); assay: NCI-60 SRB cytotoxicity screen; settings: Homo sapiens, single dose 10 μM, read-out: growth inhibition (GI%)
[12] = tested on: MALME-3M (melanoma); assay: NCI-60 SRB cytotoxicity screen; settings: Homo sapiens, single dose 10 μM, read-out: growth inhibition (GI%)
[13] = tested on: HCT-15 (colon cancer); assay: NCI-60 SRB cytotoxicity screen; settings: Homo sapiens; HCT-15, single dose 10 μM; read-out: growth inhibition (GI%)
[14] = tested on: HCT-116 (colon cancer); assay: NCI-60 SRB cytotoxicity screen; settings: Homo sapiens; HCT-116, single dose 10 μM; read-out: growth inhibition (GI%)
[15] = tested on: NCI-H322M (non-small cell lung cancer); assay: NCI-60 SRB cytotoxicity screen; settings: Homo sapiens, single dose 10 μM, read-out: growth inhibition (GI%)
[16] = tested on: ACHN (renal cancer); assay: NCI-60 SRB cytotoxicity screen; settings: Homo sapiens, single dose 10 μM, read-out: growth inhibition (GI%)
[17] = tested on: HCC-2998 (colon cancer); assay: NCI-60 SRB cytotoxicity screen; settings: Homo sapiens; HCC-2998, single dose 10 μM; read-out: growth inhibition (GI%)
[18] = tested on: MOLT-4 (leukemia); assay: NCI-60 SRB cytotoxicity screen; settings: Homo sapiens; MOLT-4, single dose 10 μM; read-out: growth inhibition (GI%)
[19] = tested on: COLO 205 (colon cancer); assay: NCI-60 SRB cytotoxicity screen; settings: Homo sapiens; COLO 205, single dose 10 μM; read-out: growth inhibition (GI%)
[20] = tested on: 60 cancer cell lines (NCI); assay: NCI-60 single-dose screen, overall verdict over the panel; settings: single dose 10 μM, whole panel
Experimental: The cytotoxic activity of the synthesized quinoline derivatives was determined by the national cancer institute (NCI, Bethesda, Maryland, USA) against 60 different cancer cell lines at a single high dose (10^−5 M) in the full NCI 60 cell panel using the sulforhodamine B assay for cell viability evaluation. In summary, 5 × 10^3 cells were in 96-well plate and incubated in complete media for 24 h. Cells were treated with 100 μL of media containing each newly synthesized compound. After drug exposure, cells were fixed by replacing media with 150 μL of 10% TCA and incubated at 4 °C for 1 h. The TCA solution was removed, and the cells were washed 5 times with distilled water. Aliquots of 70 μL SRB solution (0.4% w/v) were added and incubated in a dark place at room temperature for 10 min. The plates were washed 3 times with 1% acetic acid and allowed to air-dry overnight. Then, 150 μL of TRIS (10 mM) was added to dissolve protein-bound SRB stain. The absorbance was measured at 540 nm.% Cytotoxicity = [1 − (AVx/AVNC)] × 100where AVx denotes the average absorbance of the sample well and AVNC denotes the average absorbance of the negative control.

[21] = tested on: SK-OV-3 (ovarian cancer); assay: NCI-60 SRB cytotoxicity screen; settings: Homo sapiens; SK-OV-3, single dose 10 μM; read-out: growth inhibition (GI%)
[22] = tested on: UACC-62 (melanoma); assay: NCI-60 SRB cytotoxicity screen; settings: Homo sapiens; UACC-62, single dose 10 μM; read-out: growth inhibition (GI%)
[23] = tested on: TK-10 (renal cancer); assay: NCI-60 SRB cytotoxicity screen; settings: Homo sapiens; TK-10, single dose 10 μM; read-out: growth inhibition (GI%)
[24] = tested on: HL-60(TB) (leukemia); assay: NCI-60 SRB cytotoxicity screen; settings: Homo sapiens, single dose 10 μM, read-out: growth inhibition (GI%)
[25] = tested on: SNB-75 (CNS cancer); assay: NCI-60 SRB cytotoxicity screen; settings: Homo sapiens, SNB-75, SNB-75, single dose 10 μM; read-out: growth inhibition (GI%)
[26] = tested on: A549/ATCC (non-small cell lung cancer); assay: NCI-60 SRB cytotoxicity screen; settings: Homo sapiens, single dose 10 μM, read-out: growth inhibition (GI%)
[27] = tested on: NCI-H23 (non-small cell lung cancer); assay: NCI-60 SRB cytotoxicity screen; settings: Homo sapiens; NCI-H23, single dose 10 μM; read-out: growth inhibition (GI%)
[28] = tested on: RXF 393 (renal cancer); assay: NCI-60 SRB cytotoxicity screen; settings: Homo sapiens; RXF 393, single dose 10 μM; read-out: growth inhibition (GI%)
[29] = tested on: U251 (CNS cancer); assay: NCI-60 SRB cytotoxicity screen; settings: Homo sapiens, U-251; U251, single dose 10 μM; read-out: growth inhibition (GI%)
[30] = tested on: CAKI-1 (renal cancer); assay: NCI-60 SRB cytotoxicity screen; settings: Homo sapiens; CAKI-1, single dose 10 μM; read-out: growth inhibition (GI%)
[31] = tested on: OVCAR-5 (ovarian cancer); assay: NCI-60 SRB cytotoxicity screen; settings: Homo sapiens; OVCAR-5, single dose 10 μM; read-out: growth inhibition (GI%)
[32] = tested on: SNB-19 (CNS cancer); assay: NCI-60 SRB cytotoxicity screen; settings: Homo sapiens; SNB-19, single dose 10 μM; read-out: growth inhibition (GI%)
[33] = tested on: 786-0 (renal cancer); assay: NCI-60 SRB cytotoxicity screen; settings: Homo sapiens; 786-0, single dose 10 μM; read-out: growth inhibition (GI%)
[34] = tested on: NCI-H522 (non-small cell lung cancer); assay: NCI-60 SRB cytotoxicity screen; settings: Homo sapiens; NCI-H522, single dose 10 μM; read-out: growth inhibition (GI%)
[35] = tested on: BT-549 (breast cancer); assay: NCI-60 SRB cytotoxicity screen; settings: Homo sapiens; BT-549, single dose 10 μM; read-out: growth inhibition (GI%)

Row | SMILES | inhibition at 10 µM [1] [%] | inhibition at 10 µM [2] [%] | inhibition at 10 µM [3] [%] | inhibition at 10 µM [4] [%] | inhibition at 10 µM [5] [%] | inhibition at 10 µM [6] [%] | inhibition at 10 µM [7] [%] | inhibition at 10 µM [8] [%] | inhibition at 10 µM [9] [%] | inhibition at 10 µM [10] [%] | inhibition at 10 µM [11] [%] | inhibition at 10 µM [12] [%] | inhibition at 10 µM [13] [%] | inhibition at 10 µM [14] [%] | inhibition at 10 µM [15] [%] | inhibition at 10 µM [16] [%] | inhibition at 10 µM [17] [%] | inhibition at 10 µM [18] [%] | inhibition at 10 µM [19] [%] | cytotoxic activity over the cell lines (in words) [20] | further results
1 | CCc1cccc2cc(-c3cc(-c4ccc(Br)cc4)[nH]c(=S)c3C#N)c(Cl)nc12 [Compound 5e, 6-(4-Bromophenyl)-4-(2-chloro-8-ethylquinolin-3-yl)-2-thioxo-1,2-dihydropyridine-3-carbonitrile] | 19.7 | < 10 | < 10 | < 10 | < 10 | < 10 | < 10 | < 10 | < 10 | < 10 | < 10 | < 10 | < 10 | < 10 | < 10 | < 10 | < 10 | < 10 | < 10 | slight cytotoxic activity | inhibition at 10 µM [21]: 11.2%; inhibition at 10 µM [22]: < 10%; inhibition at 10 µM [23]: < 10%; inhibition at 10 µM [24]: < 10%; inhibition at 10 µM [25]: 19.8%; inhibition at 10 µM [26]: < 10%; inhibition at 10 µM [27]: < 10%; inhibition at 10 µM [28]: < 10%; inhibition at 10 µM [29]: < 10%; inhibition at 10 µM [30]: 20.1%; inhibition at 10 µM [31]: < 10%; inhibition at 10 µM [32]: < 10%; inhibition at 10 µM [33]: < 10%; inhibition at 10 µM [34]: < 10%; inhibition at 10 µM [35]: < 10%
2 | CCc1cccc2cc(-c3cc(-c4ccc(F)cc4)[nH]c(=O)c3C#N)c(Cl)nc12 [Compound 4d, 4-(2-Chloro-8-ethylquinolin-3-yl)-6-(4-fluorophenyl)-2-oxo-1,2-dihydropyridine-3-carbonitrile] | 24.6 | < 10 | < 10 | < 10 | < 10 | < 10 | < 10 | < 10 | 27.2 | < 10 | < 10 | < 10 | 11.1 | < 10 | < 10 | < 10 | < 10 | 15 | < 10 | mild cytotoxic activity | inhibition at 10 µM [21]: < 10%; inhibition at 10 µM [22]: 16.5%; inhibition at 10 µM [23]: < 10%; inhibition at 10 µM [24]: < 10%; inhibition at 10 µM [25]: < 10%; inhibition at 10 µM [26]: < 10%; inhibition at 10 µM [27]: 12%; inhibition at 10 µM [28]: < 10%; inhibition at 10 µM [29]: < 10%; inhibition at 10 µM [30]: 19.5%; inhibition at 10 µM [31]: < 10%; inhibition at 10 µM [32]: < 10%; inhibition at 10 µM [33]: < 10%; inhibition at 10 µM [34]: < 10%; inhibition at 10 µM [35]: 17.8%
3 | CCc1cccc2cc(-c3cc(-c4ccc(OC)c(OC)c4)[nH]c(=O)c3C#N)c(Cl)nc12 [Compound 4b, 4-(2-Chloro-8-ethylquinolin-3-yl)-6-(3,4-dimethoxyphenyl)-2-oxo-1,2-dihydropyridine-3-carbonitrile] | 11.3 | < 10 | 16.1 | < 10 | < 10 | < 10 | < 10 | < 10 | 20 | < 10 | 14.2 | < 10 | < 10 | < 10 | < 10 | < 10 | < 10 | < 10 | < 10 | mild cytotoxic activity | inhibition at 10 µM [21]: < 10%; inhibition at 10 µM [22]: < 10%; inhibition at 10 µM [23]: < 10%; inhibition at 10 µM [24]: < 10%; inhibition at 10 µM [25]: 29.6%; inhibition at 10 µM [26]: < 10%; inhibition at 10 µM [27]: < 10%; inhibition at 10 µM [28]: 33.8%; inhibition at 10 µM [29]: < 10%; inhibition at 10 µM [30]: 39.2%; inhibition at 10 µM [31]: < 10%; inhibition at 10 µM [32]: < 10%; inhibition at 10 µM [33]: < 10%; inhibition at 10 µM [34]: 14.7%; inhibition at 10 µM [35]: < 10%
4 | CCc1cccc2cc(C=CC(=O)c3ccc(F)cc3)c(Cl)nc12 [Compound 3d, 3-(2-Chloro-8-ethylquinolin-3-yl)-1-(4-fluorophenyl)prop-2-en-1-one] | < 10 | < 10 | < 10 | < 10 | < 10 | 11 | < 10 | < 10 | < 10 | < 10 | < 10 | < 10 | < 10 | < 10 | < 10 | < 10 | < 10 | < 10 | < 10 | low cytotoxic activity | inhibition at 10 µM [21]: < 10%; inhibition at 10 µM [22]: < 10%; inhibition at 10 µM [23]: < 10%; inhibition at 10 µM [24]: < 10%; inhibition at 10 µM [25]: < 10%; inhibition at 10 µM [26]: < 10%; inhibition at 10 µM [27]: < 10%; inhibition at 10 µM [28]: < 10%; inhibition at 10 µM [29]: < 10%; inhibition at 10 µM [30]: 11.8%; inhibition at 10 µM [31]: < 10%; inhibition at 10 µM [32]: < 10%; inhibition at 10 µM [33]: < 10%; inhibition at 10 µM [34]: < 10%; inhibition at 10 µM [35]: < 10%
